Experimental data published in patent publication US9845308B2, “Isoindoline inhibitors of ROR-gamma” (Vitae Pharmaceuticals, Inc., priority 2014, dated 2017).

Key:
[1] = target: recombinant RORγ Ligand Binding Domain (LBD) protein (Homo sapiens (Human), UniProt P51449); test: Radio-Ligand RORγ Binding Assay (Assay 1); settings: competition with 25-hydroxy[26,27-3H]-cholesterol, SPA; read-out: RORγ Binding Ki Range* (nM) (Assay 1)
Method: Radio-Ligand RORγ Binding Assay (Assay 1)
Compounds of the present invention were tested for ability to bind to RORγ in a cell-free competition assay with commercially available radio-ligand (RL), 25-hydroxy[26,27-^3H]-cholesterol (PerkinElmer, Cat. #NET674250UC), for a ligand binding site on a recombinant RORγ Ligand Binding Domain (LBD) protein expressed as a 6×His-Glutathione-S-Transferase (GST) fusion. […] The plate was shaken at 700 rpm for 20 min and incubated for 10 min at rt, after which 40 μL of poly-Lys YSi SPA beads (PerkinElmer, Cat. #RPNQ0010) were added to achieve 50 μg of the beads per well. The plate was incubated on an orbital shaker for 20 min and then for 10 min without agitation at rt. SPA signal for tritium beta radiation was registered on PerkinElmer Microbeta plate reader. […] The percent inhibition vs. concentration data were fit into a four-parameter model, and IC50 values were calculated from the fit as the concentrations corresponding to the inflection points on the dose-response curves. […]

[2] = target: full-length RORγt in Jurkat cells (Homo sapiens (Human), UniProt P51449); test: RORγt 5×RORE Assay in Jurkat Cells (Assay 2); assay type: cell-based; settings: 5xRORE secreted Nanoluc luciferase reporter, 16-18 hrs, read-out: RORγt5X IC50 Range* (nM) (Assay 2)
Chain of full-length RORγt in Jurkat cells (P51449 other isoform, or with tags, fused parts or gaps): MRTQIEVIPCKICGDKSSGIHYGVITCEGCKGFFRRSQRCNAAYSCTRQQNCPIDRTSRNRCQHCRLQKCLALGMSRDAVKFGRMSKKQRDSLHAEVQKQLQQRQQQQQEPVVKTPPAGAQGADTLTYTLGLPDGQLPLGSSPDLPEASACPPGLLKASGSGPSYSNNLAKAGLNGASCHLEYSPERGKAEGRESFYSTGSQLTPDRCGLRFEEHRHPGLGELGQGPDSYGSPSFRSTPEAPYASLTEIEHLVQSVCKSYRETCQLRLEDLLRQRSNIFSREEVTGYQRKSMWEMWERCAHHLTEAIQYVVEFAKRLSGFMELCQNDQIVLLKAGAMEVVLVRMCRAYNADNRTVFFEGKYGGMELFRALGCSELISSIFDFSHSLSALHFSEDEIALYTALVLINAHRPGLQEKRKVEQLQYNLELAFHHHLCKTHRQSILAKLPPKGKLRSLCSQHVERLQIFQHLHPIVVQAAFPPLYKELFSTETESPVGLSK
Method: [formula] RORγt 5×RORE Assay in Jurkat Cells (Assay 2)
Compounds of the present invention were tested for RORγ inverse agonist activity in a cell-based, transcriptional activity assay. […] (Promega, Cat. #N1021) using KpnI and HindIII restriction sites. […] Tested compounds were added to the cells in the same media (final concentration of DMSO was 0.1% (v/v)), and the plates were incubated at 37° C./5% CO2 for 16-18 hrs. Luciferase activity in the conditioned supernatants was determined with NanoGlo® assay reagents (Promega, Cat.#N1130).

Chain of recombinant RORγ Ligand Binding Domain (LBD) protein (P51449 269-508): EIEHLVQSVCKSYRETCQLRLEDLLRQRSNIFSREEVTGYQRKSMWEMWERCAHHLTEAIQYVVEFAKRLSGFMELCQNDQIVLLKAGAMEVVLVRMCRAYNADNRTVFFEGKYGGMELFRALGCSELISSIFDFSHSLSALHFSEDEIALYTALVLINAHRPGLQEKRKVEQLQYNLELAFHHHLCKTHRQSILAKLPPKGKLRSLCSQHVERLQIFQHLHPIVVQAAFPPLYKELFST

CCO[C@H]1CC[C@H](CN2Cc3cc(C(=O)NCc4ccc(S(=O)(=O)CC)cn4)ccc3[C@@H]2C(C)C)CC1 (single isomer, unassigned) [Compound 7a, 2-((trans-4-ethoxycyclohexyl)methyl)-N-((5-(ethylsulfonyl)pyridin-2-yl)methyl)-1-isopropylisoindoline-5-carboxamide]
Ki [1]: < 100 nM | IC50 [2]: < 100 nM

CCO[C@H]1CC[C@H](CN2Cc3cc(C(=O)NCc4ccc(S(=O)(=O)CC)cn4)ccc3[C@H]2C(C)C)CC1 (single isomer, unassigned) [Compound 7b, 2-((trans-4-ethoxycyclohexyl)methyl)-N-((5-(ethylsulfonyl)pyridin-2-yl)methyl)-1-isopropylisoindoline-5-carboxamide]
Ki [1]: > 1000 nM

CCS(=O)(=O)c1ccc(CNC(=O)c2ccc3c(c2)CN(CC2CCC(O)(C(F)(F)F)CC2)C3C(C)C)cc1 (single isomer, unassigned) [Compound 12a, N-(4-(ethylsulfonyl)benzyl)-2-((4-hydroxy-4-(trifluoromethyl)cyclohexyl)methyl)-1-isopropylisoindoline-5-carboxamide]
Ki [1]: < 100 nM | IC50 [2]: < 100 nM

CCS(=O)(=O)c1ccc(CNC(=O)c2ccc3c(c2)CN(CC2CCC(O)(C(F)(F)F)CC2)C3C(C)C)cc1 (single isomer, unassigned) [Compound 12b, N-(4-(ethylsulfonyl)benzyl)-2-((4-hydroxy-4-(trifluoromethyl)cyclohexyl)methyl)-1-isopropylisoindoline-5-carboxamide]
Ki [1]: < 100 nM | IC50 [2]: > 1000 nM

CCS(=O)(=O)c1ccc(CNC(=O)c2ccc3c(c2)CN(CC2CCC(O)(C(F)(F)F)CC2)C3C(C)C)cc1 (single isomer, unassigned) [Compound 12c, N-(4-(ethylsulfonyl)benzyl)-2-((4-hydroxy-4-(trifluoromethyl)cyclohexyl)methyl)-1-isopropylisoindoline-5-carboxamide]
Ki [1]: < 100 nM | IC50 [2]: 100 to 1000 nM

CCS(=O)(=O)c1ccc(CNC(=O)c2ccc3c(c2)CN(CC2CCC(O)(C(F)(F)F)CC2)C3C(C)C)cc1 (single isomer, unassigned) [Compound 12d, N-(4-(ethylsulfonyl)benzyl)-2-((4-hydroxy-4-(trifluoromethyl)cyclohexyl)methyl)-1-isopropylisoindoline-5-carboxamide]
Ki [1]: < 100 nM | IC50 [2]: < 100 nM

CCS(=O)(=O)N1CCC(CNC(=O)c2ccc3c(c2)CN(CC2CCC(OC)(C(F)(F)F)CC2)C3C(C)C)CC1 (single isomer, unassigned) [Compound 13a, N-((1-(ethylsulfonyl)piperidin-4-yl)methyl)-1-isopropyl-2-((4-methoxy-4-(trifluoromethyl)cyclohexyl)methyl)isoindoline-5-carboxamide]
Ki [1]: < 100 nM | IC50 [2]: 100 to 1000 nM

CCS(=O)(=O)N1CCC(CNC(=O)c2ccc3c(c2)CN(CC2CCC(OC)(C(F)(F)F)CC2)C3C(C)C)CC1 (single isomer, unassigned) [Compound 13b, N-((1-(ethylsulfonyl)piperidin-4-yl)methyl)-1-isopropyl-2-((4-methoxy-4-(trifluoromethyl)cyclohexyl)methyl)isoindoline-5-carboxamide]
Ki [1]: < 100 nM | IC50 [2]: < 100 nM

COC1(C(F)(F)F)CCC(CN2Cc3cc(C(=O)NCC4CCN(S(C)(=O)=O)CC4)ccc3[C@@H]2C(C)C)CC1 (single isomer, unassigned) [Compound 14b]
Ki [1]: < 100 nM | IC50 [2]: > 1000 nM

CCS(=O)(=O)c1ccc(CNC(=O)c2ccc3c(c2)CN(CC2CCC(C(F)(F)F)OC2)[C@H]3C(C)C)nc1 (single isomer, unassigned) [Compound 16a]
Ki [1]: < 100 nM | IC50 [2]: < 100 nM

CCS(=O)(=O)c1ccc(CNC(=O)c2ccc3c(c2)CN(CC2CCC(C(F)(F)F)OC2)[C@H]3C(C)C)nc1 (single isomer, unassigned) [Compound 16b]
IC50 [2]: < 100 nM

CC[C@H]1c2ccc(C(=O)N[C@@H](COC(N)=O)c3ccc(S(=O)(=O)CC)cc3)cc2CN1C[C@H]1CC[C@H](C(F)(F)F)CC1 (single isomer, unassigned) [Compound 24a]
Ki [1]: < 100 nM | IC50 [2]: < 100 nM

CC[C@H]1c2ccc(C(=O)N[C@@H](COC(N)=O)c3ccc(S(=O)(=O)CC)cc3)cc2CN1C[C@H]1CC[C@H](C(F)(F)F)CC1 (single isomer, unassigned) [Compound 24b]
Ki [1]: < 100 nM | IC50 [2]: > 1000 nM

CCS(=O)(=O)c1ccc(CNC(=O)c2ccc3c(c2)C(=O)N(Cc2ccc(C(F)(F)F)cc2)C3C(C)C)cc1 (single isomer, unassigned) [Compound 26a, N-(4-(ethylsulfonyl)benzyl)-1-isopropyl-3-oxo-2-(4-(trifluoromethyl)benzyl)isoindoline-5-carboxamide]
Ki [1]: < 100 nM | IC50 [2]: < 100 nM

CCS(=O)(=O)c1ccc(CNC(=O)c2ccc3c(c2)C(=O)N(Cc2ccc(C(F)(F)F)cc2)C3C(C)C)cc1 (single isomer, unassigned) [Compound 26b, N-(4-(ethylsulfonyl)benzyl)-1-isopropyl-3-oxo-2-(4-(trifluoromethyl)benzyl)isoindoline-5-carboxamide]
Ki [1]: < 100 nM | IC50 [2]: 100 to 1000 nM

CCS(=O)(=O)c1ccc(CNC(=O)c2ccc3c(c2)CN(C[C@H]2CO[C@H](C(F)(F)F)OC2)[C@H]3C(C)C)nc1 (single isomer, unassigned) [Compound 32a]
Ki [1]: < 100 nM | IC50 [2]: < 100 nM

CCS(=O)(=O)c1ccc(CNC(=O)c2ccc3c(c2)CN(C[C@H]2CO[C@H](C(F)(F)F)OC2)[C@H]3C(C)C)nc1 (single isomer, unassigned) [Compound 32b]
Ki [1]: < 100 nM | IC50 [2]: > 1000 nM

CCS(=O)(=O)c1ccc([C@H](CO)NC(=O)c2ccc3c(c2)CN(C[C@H]2CC[C@H](C(F)(F)F)CC2)[C@H]3C(C)C)cc1 [Compound 3a]
Ki [1]: < 100 nM | IC50 [2]: < 100 nM

CCS(=O)(=O)c1ccc([C@H](CO)NC(=O)c2ccc3c(c2)CN(C[C@H]2CC[C@H](C(F)(F)F)CC2)[C@@H]3C(C)C)cc1 [Compound 3b]
Ki [1]: < 100 nM | IC50 [2]: 100 to 1000 nM

CCS(=O)(=O)c1ccc([C@@H](CO)NC(=O)c2ccc3c(c2)CN(C[C@H]2CC[C@H](C(F)(F)F)CC2)[C@H]3C(C)C)cc1 [Compound 3c]
Ki [1]: < 100 nM | IC50 [2]: < 100 nM

CCS(=O)(=O)c1ccc([C@@H](CO)NC(=O)c2ccc3c(c2)CN(C[C@H]2CC[C@H](C(F)(F)F)CC2)[C@@H]3C(C)C)cc1 [Compound 3d]
Ki [1]: < 100 nM | IC50 [2]: > 1000 nM

CC(C)[C@H]1c2ccc(C(=O)NCC3CCN(S(C)(=O)=O)CC3)cc2CN1C[C@H]1CC[C@H](C(F)(F)F)CC1 [Compound 4a]
Ki [1]: < 100 nM | IC50 [2]: < 100 nM

CC(C)[C@@H]1c2ccc(C(=O)NCC3CCN(S(C)(=O)=O)CC3)cc2CN1C[C@H]1CC[C@H](C(F)(F)F)CC1 [Compound 4b]
Ki [1]: 100 to 1000 nM

CCS(=O)(=O)c1ccc([C@H](CCO)NC(=O)c2ccc3c(c2)CN(C[C@H]2CC[C@H](C(F)(F)F)CC2)[C@H]3C(C)C)cc1 [Compound 6a]
Ki [1]: < 100 nM | IC50 [2]: < 100 nM

CCS(=O)(=O)c1ccc([C@H](CCO)NC(=O)c2ccc3c(c2)CN(C[C@H]2CC[C@H](C(F)(F)F)CC2)[C@@H]3C(C)C)cc1 [Compound 6b]
Ki [1]: < 100 nM | IC50 [2]: 100 to 1000 nM

CCS(=O)(=O)N1CCC(CNC(=O)c2ccc3c(c2)CN(CC2CCC(OC)(C(F)(F)F)CC2)C3C(C)C)CC1 (centres unmarked) [Compound 13c and 13d, N-((1-(ethylsulfonyl)piperidin-4-yl)methyl)-1-isopropyl-2-((4-methoxy-4-(trifluoromethyl)cyclohexyl)methyl)isoindoline-5-carboxamide]
Ki [1]: 100 to 1000 nM

CC[C@H]1c2ccc(C(=O)NCc3ccc(S(=O)(=O)NC)cc3)cc2CN1C[C@H]1CC[C@H](C(F)(F)F)CC1 [Compound 22]
Ki [1]: < 100 nM | IC50 [2]: < 100 nM

CC[C@H]1c2ccc(C(=O)NCc3ccc(S(=O)(=O)NC)cn3)cc2CN1C[C@H]1CC[C@H](C(F)(F)F)CC1 [Compound 23a]
Ki [1]: < 100 nM | IC50 [2]: < 100 nM

CC[C@@H]1c2ccc(C(=O)NCc3ccc(S(=O)(=O)NC)cn3)cc2CN1C[C@H]1CC[C@H](C(F)(F)F)CC1 [Compound 23b]
Ki [1]: < 100 nM | IC50 [2]: 100 to 1000 nM

CCS(=O)(=O)c1ccc(CNC(=O)c2ccc3c(c2)C(=O)N(Cc2ccc(C(F)(F)F)cc2)C3C(C)C)nc1 (centres unmarked) [Compound 27]
Ki [1]: < 100 nM | IC50 [2]: 100 to 1000 nM

CCS(=O)(=O)c1ccc([C@H](CO)NC(=O)c2ccc3c(c2)C(=O)N(Cc2ccc(C(F)(F)F)cc2)C3C(C)C)cc1 (some centres unmarked) [Compound 28]
Ki [1]: < 100 nM | IC50 [2]: < 100 nM

CCC1(C)c2ccc(C(=O)NCc3ccc(S(=O)(=O)CC)cc3)cc2C(=O)N1CC1CCC(C(F)(F)F)CC1 (centres unmarked) [Compound 31, 1-ethyl-N-(4-(ethylsulfonyl)benzyl)-1-methyl-3-oxo-2-((4-(trifluoromethyl)cyclohexyl)methyl)isoindoline-5-carboxamide]
Ki [1]: > 1000 nM
